Values joined by “and” are separate entries in the source; they are usually repeats but may differ in a detail not shown here. Equal values may be shown once.
Tests used:
[1] = Hydrogel formation, vial inversion test (critical gel concentration); format: physicochemical; details: for Remarks (gel state): vial inversion test; for CGC: triggers GdL
Text: (§1) The simplest method to determine whether a suitable hydrogel has formed is to use the vial inversion test. Through visual inspection, a material can be categorised as a solution, viscous solution, partial gel, or solid-like gel. A stable hydrogel needs to be able to hold its weight and/or maintain its shape during this assessment.
(§2) The critical gel concentration (CGC) is defined as the minimum mass of a short peptide required to provide a self-supporting hydrogel per unit volume in the vial inversion test (measured as % w/v).
(§3) Pre-weighed samples of short peptide 4 were prepared in aluminium-covered glass vials and Milli-Q water and 2 equivalents of NaOH (1.0 M) were added to make up concentrations of 1% w/v. The resulting suspensions were vortexed for 5 minutes to provide clear yellow solutions with pH 11.
(§4) To create a high ionic strength environment, 1 equivalent of NaCl was added and the vial was left to stand without disturbance for 3 hours at room temperature. Meanwhile, as an attempt to form a hydrogel by lowering the pH, 2 equivalents of GdL were added to a high pH solution of 4 followed by gentle mixing. These vials were inverted and allowed to stand overnight to confirm the hydrogel formation.
(§5) The formation of hydrogel 4 via the solvent switch method was conducted by dissolving short peptide 4, in an aluminium covered glass vial, with either 50% methanol, ethanol, or dimethyl sulfoxide (DMSO). Respective amounts of Mili-Q water were added to make up concentrations of 1% w/v.
(§6) In addition, gelation time was defined as the time (hours) required for 1% w/v of short peptide 4 to form a hydrogel which can be turned upside down without collapsing.
(§7) Pre-weighed samples of short peptides 10a-17a, 18, and 19 were prepared in glass vials with 10 mm internal diameter, and Milli-Q water was added to make up concentrations of 1% w/v. The resulting suspensions of short peptides 13, 18, and 19 (as ammonium or guanidinium salts) were slowly warmed until all solid had completely dissolved. GdL (1.5 to 2.0 equivalents) was added to the suspension of short peptides 10a-17a, before heat was applied. To create a high ionic strength environment, 1-5 equivalents of NaCl was added to the viscous solution of 10a-17a to make the total volume up to 1 mL, followed by gentle mixing, and the vial was left to stand without disturbance for 3 hours at room temperature. Subsequently, these vials were inverted and allowed to stand overnight to confirm hydrogel formation.

S. aureus 38 = test: Antibacterial activity of cationic hydrogels, viable count method; format: cell-based, Staphylococcus aureus; details: hydrogel at 1% w/v in contact with S. aureus, compared to control
Method: The antibacterial activity of the anthranilamide-based cationic hydrogels 11-13 and 15-19 was investigated in vitro against S. aureus. The antibacterial activity of anthranilamide-based cationic hydrogel 11 was also investigated in vitro against E. coli.
First, a single colony of S. aureus 38 or E. coli K12 was grown in Luria-Bertani (LB) broth medium at 37° C. overnight. The resulting bacteria were harvested, via centrifugation, to obtain a bacteria pellet which was re-suspended in the same volume of LB medium, twice. The optical density (OD) value of the resulting culture was adjusted to 0.1 at 600 nm in LB (10^8 cfu·mL^−1). This bacteria solution was then further adjusted to 3×10^4 cfu mL^−1. (CFU or cfu=colony-forming unit). Bacteria solutions (1 mL), which contain either 10^8 CFUs/mL or 3×10^4 CFUs/mL, were gently added to hydrogel 11 at 1% w/v with total volume of 1 mL. Anthranilamide-based cationic hydrogels 11-13 and 15-19 (1 mL) were prepared at 1% w/v in glass vials as described above. On top of these pre-formed hydrogels, 1 mL of bacteria solution was carefully cast. […] As a negative control, a bacterial solution in the absence of hydrogel was used. After being incubated at 37° C. for 18 hours, 100 μL of bacteria solution in each vial was taken and subjected to serial dilution using phosphate buffer solution (PBS). 20 μL of each dilution were carefully transferred into nutrient agar plates and incubated for another 18 hours. The following day, bacterial growth inhibition was quantified using the viable count method. The experiment was performed twice in triplicate and multiple sample comparison was performed using one-way ANOVA at p<0.05.

[2] = Atomic force microscopy (AFM) of fibers; format: physicochemical; details: for fiber bundle diameter: hydrogel after addition of salt, 4× below CGC; for fiber diameter: hydrogel, 4× below CGC (17 imaged at 0.10% w/v)
Method: Hydrogels of NO-releasing short peptide 4 (1 drop), at high pH, low pH, and after irradiation, were cast onto a mica substrate. Hydrogels of cationic short peptides 11-13 and 15-19 were prepared at their CGC, 2× below, and 4× below CGC in glass vials. Prior to gelation, one drop of the cationic short peptide solutions was cast onto a mica substrate. Using a glass slide, each droplet was carefully spread and was left to dry overnight before imaging. Imaging was performed using a Bruker Multimode 8 Atomic Force Microscope in Scanasyst Air (PeakForce Tappings) mode, which is based on tapping mode AFM. To prevent damage of soft samples, the imaging parameters were constantly optimized through the force curves that were collected. Bruker Scanasyst-Air probes were used, with a spring constant of 0.4-0.8 N·m^−1 and a tip radius of 2 nm.
To gain some insight on the mechanism of antibacterial action, the released solutions from hydrogel made of primary ammonium 11 were directly cast onto a mica substrate. […] After gently spreading using a glass slide and left to dry overnight, these samples were imaged using a similar manner as describe above.

[3] = Hydrogel formation, vial inversion test (critical gel concentration); format: physicochemical; parameters: key: VS: viscous solution; CG: clear gel; details: vial inversion test
Text: as §1, §2, §3, §4, §5, §6, §7

[4] = Frequency sweep test (FST), rheometer; format: physicochemical; details: for G′ (modulus storage) / G″ (modulus loss): FST fixed strain 0.1%
Method: The mechanical properties of anthranilamide-based cationic hydrogels were assessed using an Anton Paar MCR 302 rheometer with a 25 mm stainless parallel plate configuration.
(§8) Initially, 1 mL of hydrogels were prepared from short peptides 11-13 and 15-19 in glass vials at concentration of 1% w/v. These vials were warmed using a heat gun to transform the hydrogel to the solution phase. Subsequently, 560 μL of the resulting solutions were cast onto the rheometer plate. The other plate was lowered to the measuring position ([…]) and the hydrogel was allowed to stand for 3 hours for the gel to form. The FST was conducted at fixed strain of 0.1% and frequency ranging from 10 Hz to 0.01 Hz. Meanwhile, the strain sweep test (SST) was performed at a frequency of 1 Hz using 0.1% strain to 100% strain. The rheology data were shown as the average of three repeats for each data point.
(§9) The mechanical properties of hydrogels 4 (formed via addition of NaCl or GdL) before and after blue light irradiation were also assessed using an Anton Paar MCR 302 rheometer with a 25 mm stainless parallel plate configuration. Prior to the hydrogel formation, 560 μL of solution phase of short peptide 4 at 1% w/v were transferred onto a rheometer plate. Meanwhile, hydrogel 4, which had been exposed to blue light, was warmed using a heat gun, to provide its solution phase. Subsequently, 560 μL of this solution phase was cast onto the rheometer plate. The other plate was lowered to the measuring position ([…]) and the hydrogel was allowed to stand for 3 hours for the gel to form. The frequency sweep test (FST) was conducted at fixed strain of 0.1% and frequency ranging from 10 Hz to 0.01 Hz. Meanwhile, the SST was performed at a frequency of 1 Hz using 0.1% strain to 100% strain. In addition, the temperature sweep test was conducted to obtain transition glass (Tg) using fixed frequency of 1 Hz and fixed strain of 0.1% with temperature ramping from 25° C. to 90° C. The rheology data were shown as the average of three repeats for each data point.
In the FST, samples were measured over a range of oscillation frequencies (0.1-10 rad/s) at fixed strain, temperature, and oscillation amplitude. Higher frequencies simulate fast motion on a short time-scale, while low frequencies simulate slow motion on a long time-scale, or rest. All of the hydrogels made from the anthranilamide-based short cationic peptides, which passed the vial inversion test, were subjected to the FST using a rheometer to precisely assess their mechanical properties.

[5] = Strain sweep test (SST), linear viscoelastic region; format: physicochemical; details: hydrogels at 1% w/v, SST at 1 Hz, 0.1% to 100% strain
Method: as §8, §9
To observe the structural decay in anthranilamide-based cationic hydrogels, the SST was performed by imposing a non-linear strain. SST provides information about the viscoelastic properties of a hydrogel through determination of its linear viscoelastic region (LVER). […] Here, the LVER reported for each hydrogel represents the deviation of storage modulus (G′) from linearity, known as yield point (γy). Yield points have been reported to reflect a point where the rigidity of a hydrogel starts to weaken.

[6] = Hydrogel formation, vial inversion test (critical gel concentration); format: physicochemical; parameters: key: OG: opaque gel; P: precipitate; details: cationic peptides 10-14; vial inversion test
Text: as §1, §2, §3, §4, §5, §6, §7

[7] = as above; format: physicochemical; parameters: key: CG: clear gel; PG: partial gel; OG: opagque gel; details: cationic peptides 15-19
Text: as §1, §2, §3
as §4, with “formation. […]” for “formation.”

[8] = hydrogels of cationic peptides 10-14
[9] = cationic peptides 10-14, heat and NaCl (13: heat and NaCl)
[10] = cationic peptides 15-19, heat and NaCl (18, 19: heat and NaCl)
[11] = hydrogels of cationic peptides 15-19

Compound	Remarks (gel state) ([1]; cationic peptides 10-14)	pH [1, 8]	CGC [1, 9] [% w/v]	bacterial reduction (S. aureus 38) [Log10]	fiber bundle diameter [2] [nm]	Remarks (gel state) ([3]; cationic peptides 10-14)	G′/G″ ratio ([4]; hydrogels 11-13 at 1% w/v)	G′ (modulus storage) ([4]; hydrogels 11-13 at 1% w/v) [kPa]	G″ (modulus loss) ([4]; hydrogels 11-13 at 1% w/v) [kPa]	LVER (linear viscoelastic region) [5]	Remarks (gel state) [6]	CGC [1, 10] [% W/V]	pH [1, 11]	G′/G″ ratio ([4]; hydrogels 15-19 at 1% w/v)	G′ (modulus storage) ([4]; hydrogels 15-19 at 1% w/v) [kPa]	G″ (modulus loss) ([4]; hydrogels 15-19 at 1% w/v) [kPa]	Remarks (gel state) [7]	Remarks (gel state) ([1]; cationic peptides 15-19)	fiber diameter [2] [nm]	Remarks (gel state) ([3]; cationic peptides 15-19)
NCCNC(=O)[C@H](Cc1ccccc1)NC(=O)c1ccccc1NC(=O)c1ccc2ccccc2c1 [Compound 10]	CG → PG	5.5	–	–	–	–	–	–	–	–	–	–	–	–	–	–	–	–	–	–
CN(C)CCCNC(=O)[C@H](Cc1ccccc1)NC(=O)c1ccccc1NC(=O)c1ccc2ccccc2c1 [Compound 12]	–	5.5	0.3	5.1	139±10	CG	15.7	8.63	0.55	0.98 ± 0.02%	–	–	–	–	–	–	–	–	–	–
C[N+](C)(C)CCCNC(=O)[C@H](Cc1ccccc1)NC(=O)c1ccccc1NC(=O)c1ccc2ccccc2c1.[I-] [Compound 13, (S)-3-(2-(2-(2-naphthamido)benzamido)-3-phenylpropanamido)-N,N,N-trimethylpropan-1-aminium iodide]	–	6	0.2	4.1	148±16	–	10.9	2.28	0.21	1.10 ± 0.04%	OG	–	–	–	–	–	–	–	–	–
N=C(N)NCCCNC(=O)[C@H](Cc1ccccc1)NC(=O)c1ccccc1NC(=O)c1ccc2ccccc2c1 [Compound 14]	–	6	–	–	–	–	–	–	–	–	–	–	–	–	–	–	–	–	–	–
CN(C)CCCNC(=O)[C@H](Cc1ccccc1)NC(=O)c1ccc(F)cc1NC(=O)c1ccc2ccccc2c1 [Compound 15]	–	–	–	3.1	115±10	–	–	–	–	2.01% and 2.01 ± 0.06%	–	0.	5.5	20	1.20	0.06	OG	–	–	–
CN(C)CCCNC(=O)[C@H](Cc1ccccc1)NC(=O)c1ccc(Cl)cc1NC(=O)c1ccc2ccccc2c1 [Compound 16]	–	–	–	5.0	99±6	–	–	–	–	1.66% and 1.66 ± 0.10%	–	0.2	5.5	10.6	0.53	0.05	OG	–	–	–
CN(C)CCCNC(=O)[C@H](Cc1ccccc1)NC(=O)c1ccc(Br)cc1NC(=O)c1ccc2ccccc2c1 [Compound 17]	–	–	–	–	–	–	–	–	–	0.16% and 0.16 ± 0.01%	–	–	5.5	4.0	0.08	0.02	–	OG → PG	101±6	–
CN(C)CCCNC(=O)[C@H](Cc1ccccc1)NC(=O)c1ccccc1NC(=O)c1ccc2ccccc2c1 [Compound 18, (S)-3-(2-(2-(2-naphthamido)benzamido)-3-phenylpropanamido)-N,N-dimethylpropan-1-aminium Ttrifluoroacetate]	–	–	–	4.9	–	–	–	–	–	0.98 ± 0.02%	–	0.3	4	16.5	5.12	0.31	–	–	104±4	CG
CN(C)CCCNC(=O)[C@H](Cc1ccccc1)NC(=O)c1ccccc1NC(=O)c1ccc2ccccc2c1.Cl [Compound 19, (S)-3-(2-(2-(2-naphthamido)benzamido)-3-phenylpropanamido)-N,N-dimethylpropan-1-aminium Chloride]	–	–	–	3.0	–	–	–	–	–	1.00 ± 0.01%	–	0.3	5	10.1	1.61	0.16	–	–	87±6	CG

From patent US20230123497A1, “NOVEL ANTIBACTERIAL HYDROGELS” (NewSouth Innovations Pty Limited, priority 2020, published 2023)
